# Experiments:
# Test in all cases: relative viability (nuclei count vs DMSO), 5 days (fraction); higher = more cells survive
# [1] = compound: CC1=NN=C(O1)C2=NN=C(C=C2)N3CCC(CC3)OC4=C(C=CC(=C4)F)Cl + CC(=O)Nc1cccc(-n2c(=O)n(C3CC3)c(=O)c3c(Nc4ccc(I)cc4F)n(C)c(=O)c(C)c32)c1 [Trametinib] (partner 0.02 µM)
# In short: (§1)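 Lung cancer cell lines, seeded in 1536-well plates, were treated the following day by pin tool with a single drug or with five library-drug doses (not always all listed) in √10 steps on top of a fixed anchor-drug dose. Cells were fixed and nuclei stained in one step after 5 days, and nuclei were counted. Relative viability is the nuclei count for treated wells divided by that for vehicle wells, reported as medians of duplicate plates.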
# [2] = compound: CC1=NN=C(O1)C2=NN=C(C=C2)N3CCC(CC3)OC4=C(C=CC(=C4)F)Cl + C[C@]1(O)C[C@@H](c2nc(-c3ccc4ccc(-c5ccccc5)nc4c3)c3c(N)nccn32)C1 [Linsitinib] (partner 1 µM)
# In short: as §1
# [3] = compound: CC1=NN=C(O1)C2=NN=C(C=C2)N3CCC(CC3)OC4=C(C=CC(=C4)F)Cl + Nc1ncn([C@H]2C[C@H](O)[C@@H](CO)O2)c(=O)n1 [Decitabine] (partner 2 µM)
# In short: as §1
# Tosedostat + Luminespib = compound: CC(C)C[C@@H](C(=O)N[C@H](C(=O)OC1CCCC1)c1ccccc1)[C@H](O)C(=O)NO [Tosedostat] + CCNC(=O)c1noc(-c2cc(C(C)C)c(O)cc2O)c1-c1ccc(CN2CCOCC2)cc1 [Luminespib] (partner 0.01 µM)
# In short: as §1
Cell Line,relative viability ([1]; first compound 0.253 µM),relative viability ([1]; first compound 0.8 µM),relative viability ([1]; first compound 2.53 µM),relative viability ([1]; first compound 8 µM),relative viability ([2]; first compound 0.253 µM),relative viability ([2]; first compound 0.8 µM),relative viability ([2]; first compound 2.53 µM),relative viability ([2]; first compound 8 µM),relative viability ([3]; first compound 0.253 µM),relative viability ([3]; first compound 0.8 µM),relative viability ([3]; first compound 2.53 µM),relative viability ([3]; first compound 8 µM),relative viability (Tosedostat + Luminespib; first compound 0.02 µM),relative viability (Tosedostat + Luminespib; first compound 0.06325 µM),relative viability (Tosedostat + Luminespib; first compound 0.2 µM),relative viability (Tosedostat + Luminespib; first compound 0.6325 µM),relative viability (Tosedostat + Luminespib; first compound 2 µM)
HCC-78,0.338,0.396,0.433,0.365,0.455,0.417,0.459,0.403,0.491,0.43,0.397,0.509,–,–,–,–,–
HCC-366,0.16,0.23,0.268,0.193,0.225,0.291,0.386,0.247,0.242,0.207,0.292,0.252,–,–,–,–,–
HCC-827,0.42,0.343,0.431,0.399,0.395,0.281,0.366,0.355,0.342,0.298,0.183,0.282,0.587,0.73,0.651,0.362,0.695
HOP-62,0.361,0.361,0.361,0.397,0.677,–,0.771,0.443,0.189,0.184,0.19,0.18,1.01,0.894,0.925,0.919,0.817
IA-LM,–,–,–,–,0.0892,0.0763,0.1,0.0794,–,–,–,–,–,–,–,–,–
LC-2-ad,0.369,0.35,0.349,0.328,0.427,0.376,0.381,0.328,0.335,0.314,0.381,0.348,1.2,1.05,0.923,0.792,0.891
LCLC-97TM1,0.175,–,0.191,0.148,0.159,–,0.174,0.191,0.205,–,0.186,0.18,0.775,0.81,0.688,0.644,0.652
LCLC-103H,0.533,0.522,0.489,0.431,0.807,0.867,0.761,0.711,0.491,0.694,0.552,0.435,1.04,0.932,1.04,0.998,0.9
LK-2,0.728,0.732,0.867,0.828,0.603,0.592,0.627,0.49,0.401,0.279,0.325,0.315,0.175,0.21,0.167,0.221,0.214
LOU-NH91,–,0.722,0.744,0.77,–,0.86,0.862,0.997,–,0.773,0.773,0.759,0.377,0.454,0.313,0.306,0.322
LU99A,0.525,0.59,0.577,0.509,0.459,0.5,0.498,0.466,0.891,0.913,0.812,0.834,0.316,0.245,0.337,0.277,0.232
NCI-H522,0.785,0.852,0.783,0.924,–,–,–,–,0.629,0.624,0.573,0.65,1.29,1.27,1.23,1.41,1.27
NCI-H1299,–,–,–,–,0.896,0.802,0.807,0.856,–,–,–,–,–,–,–,–,–
NCI-H1563,–,–,–,–,1.18,1.1,1.35,1.21,–,–,–,–,0.575,0.52,0.5,0.648,0.492
NCI-H1623,–,–,–,–,–,–,–,–,–,–,–,–,0.51,0.622,0.607,0.538,0.607
NCI-H1648,0.442,0.43,0.405,0.479,–,–,–,–,0.378,0.465,0.433,0.473,–,–,–,–,–
NCI-H1650,0.352,0.482,0.481,0.49,–,–,–,–,0.338,0.402,0.387,0.392,0.185,0.179,0.205,0.19,0.174
NCI-H1703,–,–,–,–,0.714,0.686,0.803,0.737,–,–,–,–,–,–,–,–,–
NCI-H2170,0.377,0.392,0.368,0.356,–,–,–,–,0.366,0.323,0.357,0.321,0.819,0.637,0.612,0.592,0.662
NCI-H2228,0.373,0.41,0.548,0.612,0.673,0.808,0.481,0.547,–,–,–,–,0.149,0.132,0.198,0.188,0.12
NCI-H2342,0.581,0.554,0.55,0.486,–,–,–,–,0.579,0.552,0.528,0.5,0.686,0.732,0.806,0.859,0.883
SW 900,–,0.749,0.862,0.621,–,–,–,–,–,0.467,0.395,0.426,0.175,0.182,0.19,0.17,0.155
